Results from article PMC11808397, “Development of selective nanomolar cyclic peptide ligands as GBA1 enzyme stabilisers” (RSC Chemical Biology, 2025).
Positions of bridges follow the written chain, without caps; N, C: chain ends. Non-standard residues stand in square brackets, D forms with d. Residues, ends and D or L forms follow the SMILES beside them.

Biological target: T1, GBA1 in fibroblast lysates (Homo sapiens, UniProt P04062)
T1 construct: host or cells: human dermal fibroblasts
T1 sequence (P04062 40-536): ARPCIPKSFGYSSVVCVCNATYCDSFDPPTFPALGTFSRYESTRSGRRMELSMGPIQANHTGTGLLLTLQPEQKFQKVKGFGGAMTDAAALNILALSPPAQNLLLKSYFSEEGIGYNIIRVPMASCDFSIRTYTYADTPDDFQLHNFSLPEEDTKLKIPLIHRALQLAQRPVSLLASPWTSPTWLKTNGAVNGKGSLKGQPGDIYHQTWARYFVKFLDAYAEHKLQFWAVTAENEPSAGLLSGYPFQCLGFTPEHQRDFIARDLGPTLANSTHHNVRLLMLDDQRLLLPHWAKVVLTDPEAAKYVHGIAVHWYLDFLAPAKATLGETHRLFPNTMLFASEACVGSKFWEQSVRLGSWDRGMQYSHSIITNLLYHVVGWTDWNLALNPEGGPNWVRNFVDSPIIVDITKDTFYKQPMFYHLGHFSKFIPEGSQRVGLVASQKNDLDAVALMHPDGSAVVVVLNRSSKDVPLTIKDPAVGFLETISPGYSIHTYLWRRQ
Test: GBA1 inhibition in lysates of fibroblasts treated with peptides
Assay type: cell-based
Conditions: cells treated with peptides at increasing concentrations for 16 h, washed with PBS and homogenized; 4-MU assay
Protocol: We further investigated GBA1 inhibition in cells. Human dermal fibroblasts were initially incubated with peptide concentrations ranging from 0.1 μM (from 0.001 μM for L4, D1 and D12) to 100 μM of each cyclic peptide for […]. […] To further confirm the inability of these peptides to cross the cell membrane, we conducted in situ competitive activity-based protein profiling (cABPP) experiments using RAW 264.7 monocyte/macrophage-like cells. […] RAW 264.7 cells were then treated with increasing concentrations of cyclic peptides (0, 0.1, 1, 10, and 100 μM) for 4 hours, followed by exposure to a cell-penetrant Bodipy red broad spectrum GBA activity-based probe (ABP), JJB75[58] at 10 nM for 2 hours (Fig. S5 for chemical structures, ESI ^†). […] This cABPP experiment further confirms that the peptides are unable to cross the cell membrane (Fig. S6, ESI ^†).
Selective Cyclic Peptide Ligands as GBA1 Stabilizers Katzy et al. […]
Table S1. IC50 values for GBA1 inhibition in fibroblast lysates. Cells were treated with the peptides at increasing concentrations for 16 h, washed with PBS and homogenized. Reported values are mean ± standard deviation from 3 technical triplicates. N.D.: not determined.
Peptide GBA1 in fibroblast lysates
(1 picture or pasted object on this page, not shown here) […]
2.6. In situ cell studies
Human fibroblasts (Cambrex-Lonza CC-2511) were cultured in complete DMEM/F12 growth medium supplemented with 10% (v/v) foetal calf serum and 0.1 % (w/v) penicillin/streptomycin at 37 °C and 5% CO2. Cells were seeded in 12-well plates during passage and the incubations were started when cells were 80% - 100% confluent. Peptides were added in 500 µL medium (10 and 50 µM final concentration) and incubated overnight. After incubation cells were washed three times with cold PBS and harvested in 30 µL lysis buffer (25 mM KPi, pH 6,5 supplemented with 0.1% Triton-X 100 (v/v) and protease inhibitor). Lysates were frozen at -80 °C until use. GlcCer and GlcSph lipids were quantified as described below. In parallel, enzyme activity in cell lysates was measured using 3.7 mM 4-methylumbeliferone (4MU)-β-D-glucopyranoside in 150 mM McIlvaine buffer pH 5.2 supplemented with 0.1% bovine serum albumin (BSA) (w/v), 0.1% Triton X-100 (v/v), and 0.2% sodium taurocholate (w/v) as described above (see Table S1). […]
PBS and harvested in ice cold water. Lysates were kept at -80 °C until extraction.
2.7. 2.5. GlcCer and GlcSph lipid analysis
Levels of GlcCer and GlcSph were determined with a modified acidic Bligh & Dyer extraction (Figure 2 and S5).7 Briefly, after addition of internal standards (C17-dh-Ceramide and 13C5-Glucosylsphingosine), lipids were separated in an organic and an aqueous phase. The separated phases were dried under N2 or in a concentrator. The dried organic lower phase was reconstituted in 0.1 M NaOH in MeOH and underwent microwave-assisted deacylation. After neutralization, the samples were dried. Both phases were further extracted and desalted with equal amounts of water and butanol. The butanol phases were taken up to dryness and the lipids were dissolved in MeOH and transferred to MS vials for analysis in a LC-MS/MS system as described previously.7
2.8. Thermostability assays in rhGBA (Cerezyme)
Varying concentrations of peptides were incubated with 1 µM rhGBA1 in 20 mM HEPES pH 7.0 with 100 mM NaCl, with a final DMSO concentration of 0.5 %, for 2 hours at room temperature. Melting

Row | Compound | IC50 [µM]
1 | CC[C@H](C)[C@H](NC(=O)[C@H](CC(C)C)NC(=O)[C@H](Cc1ccc(O)cc1)NC(=O)[C@H](Cc1ccc(O)cc1)NC(=O)[C@@H]1CSCC(=O)N[C@H](Cc2ccc(O)cc2)C(=O)N[C@@H](CCCNC(=N)N)C(=O)N[C@@H](C(C)C)C(=O)N1)C(=O)N[C@H](C(=O)N[C@H](C(=O)N[C@@H](CC(C)C)C(=O)N[C@@H](CC(=O)O)C(=O)N[C@@H](CS)C(N)=O)C(C)C)[C@@H](C)O [D1] ({CH2CO}-[dY]RVCYYLITVLDC-NH2; thioether N-4) | 0.44
2 | CC(C)C[C@H](NC(=O)[C@@H](NC(=O)[C@H](CCCNC(=N)N)NC(=O)[C@@H]1CSCC(=O)N[C@H](Cc2ccc(O)cc2)C(=O)N[C@@H]([C@@H](C)O)C(=O)N2CCC[C@H]2C(=O)NCC(=O)N[C@@H](Cc2ccc(O)cc2)C(=O)N[C@@H](C(C)C)C(=O)N[C@@H](Cc2ccc(O)cc2)C(=O)N1)C(C)C)C(=O)N[C@@H](CCCCN)C(=O)N[C@@H](Cc1ccc(O)cc1)C(=O)N[C@@H](CS)C(N)=O [D8] ({CH2CO}-[dY]TPGYVYCRVLKYC-NH2; thioether N-8) | 5.16
3 | CC(C)C[C@@H]1NC(=O)CNC(=O)[C@H](CC(C)C)NC(=O)[C@@H](Cc2ccc(O)cc2)NC(=O)CSC[C@@H](C(N)=O)NC(=O)[C@H](CO)NC(=O)[C@H](CCCCN)NC(=O)[C@H](CC(C)C)NC(=O)[C@H](Cc2ccccc2)NC(=O)[C@H](CCCNC(=N)N)NC(=O)[C@H](Cc2ccc(O)cc2)NC(=O)[C@H](Cc2c[nH]c3ccccc23)NC1=O [D12] ({CH2CO}-[dY]LGLWYRFLKSC-NH2; thioether N-12) | 0.334

Further lines, results first:

Row | IC50 [µM] | Compound
4 | 39.7 | CC[C@H](C)[C@@H]1NC(=O)[C@H](CO)NC(=O)[C@H](CS)NC(=O)CNC(=O)CNC(=O)[C@H](CC(C)C)NC(=O)[C@H](Cc2ccc(O)cc2)NC(=O)[C@H](C(C)C)NC(=O)[C@H](CC(C)C)NC(=O)[C@H](CCCNC(=N)N)NC(=O)[C@@H]2CCCN2C(=O)[C@H](Cc2ccc(O)cc2)NC(=O)CSC[C@@H](C(N)=O)NC(=O)[C@H](CCC(=O)O)NC(=O)[C@H](CC(C)C)NC(=O)[C@H](CC(C)C)NC1=O [L1] ({CH2CO}-YPRLVYLGGCSILLEC-NH2; thioether N-16)
5 | 0.898 | CC[C@H](C)[C@H](NC(=O)[C@H](CCCNC(=N)N)NC(=O)[C@@H]1CSCC(=O)N[C@@H](Cc2ccc(O)cc2)C(=O)N[C@@H](C)C(=O)N[C@@H](Cc2ccc(O)cc2)C(=O)N[C@@H](Cc2c[nH]c3ccccc23)C(=O)N[C@@H](Cc2c[nH]c3ccccc23)C(=O)N[C@@H](CC(C)C)C(=O)N1)C(=O)N1CCC[C@H]1C(=O)N[C@@H](Cc1c[nH]c2ccccc12)C(=O)N[C@@H](CC(C)C)C(=O)N[C@@H](CO)C(=O)N[C@H](C(N)=O)C(C)C [L2] ({CH2CO}-YAYWWLCRIPWLSV-NH2; thioether N-7)
6 | 0.067 | CC(C)C[C@@H]1NC(=O)CNC(=O)[C@H](Cc2ccccc2)NC(=O)[C@H](CC(C)C)NC(=O)[C@@H]2CCCN2C(=O)[C@H](Cc2ccc(O)cc2)NC(=O)CSC[C@@H](C(=O)N2CCC[C@H]2C(=O)N[C@@H](CC(N)=O)C(=O)N[C@@H](Cc2c[nH]c3ccccc23)C(=O)N[C@@H](Cc2ccccc2)C(=O)N2CCC[C@H]2C(=O)N[C@@H](Cc2ccc(O)cc2)C(=O)N[C@@H](CCC(N)=O)C(=O)N[C@@H](CS)C(N)=O)NC(=O)[C@H](CO)NC(=O)[C@H](Cc2ccccc2)NC1=O [L4] ({CH2CO}-YPLFGLFSCPNWFPYQC-NH2; thioether N-9)
7 | 22.3 | CC[C@H](C)[C@@H]1NC(=O)[C@H](Cc2ccc(O)cc2)NC(=O)CSC[C@@H](C(N)=O)NC(=O)[C@H](Cc2c[nH]c3ccccc23)NC(=O)[C@H](CCC(N)=O)NC(=O)[C@H]([C@@H](C)CC)NC(=O)[C@H]([C@@H](C)CC)NC(=O)[C@@H]2CCCN2C(=O)[C@H](C(C)C)NC(=O)[C@H](Cc2ccc(O)cc2)NC(=O)[C@H](Cc2c[nH]c3ccccc23)NC(=O)[C@H](CO)NC1=O [L6] ({CH2CO}-YISWYVPIIQWC-NH2; thioether N-12)
